Measurements: patent US6355799B1, “Substituted benzene compounds, process for their preparation, and herbicidal and defoliant compositions containing them” (ISK Americas Incorporated, priority 1997, dated 2002)

What was measured:
Assay type in all cases: in vivo
[1] = tested on: velvetleaf (Abutilon theophrasti, ABUTH); experiment: Pre-emerge test, greenhouse herbicide activity screening; details: pre-emerge, rated 14 days after application, 0 = no damage, 100 = complete death
Procedure, shortened: (§1)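 Compounds in acetone were track-sprayed at 15–1000 g ai/ha: pre-emergence onto soil sown the previous day, then top-watered to incorporate and later bottom-watered; post-emergence onto 2–3 leaf plants with 0.25% v/v surfactant, bottom-watered only. Ratings on a 0–100 phytotoxicity scale were taken at day 14.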

[2] = tested on: green foxtail (Setaria viridis, SETVI); experiment: as above; details: pre-emerge, rated 14 days after application, 0 = no damage, 100 = complete death
Procedure, shortened: as §1

[3] = tested on: barnyardgrass (Echinochloa crus-galli, ECHCG); experiment: as above; details: pre-emerge, rated 14 days after application, 0 = no damage, 100 = complete death
Procedure, shortened: as §1

[4] = tested on: large crabgrass (Digitaria sanguinalis, DIGSA); experiment: as above; details: pre-emerge, rated 14 days after application, 0 = no damage, 100 = complete death
Procedure, shortened: as §1

[5] = tested on: ivyleaf morningglory (Ipomoea hederacea, IPOHE); experiment: as above; details: pre-emerge, rated 14 days after application, 0 = no damage, 100 = complete death
Procedure, shortened: as §1

[6] = tested on: lambsquarters (Chenopodium album, CHEAL); experiment: as above; details: pre-emerge, rated 14 days after application, 0 = no damage, 100 = complete death
Procedure, shortened: as §1

[7] = tested on: common ragweed (Ambrosia artemisizfolia L., AMBEL); experiment: as above; details: pre-emerge, rated 14 days after application, 0 = no damage, 100 = complete death
Procedure, shortened: as §1

[8] = tested on: sicklepod (Cassia obtusifolia, CASOB); experiment: as above; details: pre-emerge, rated 14 days after application, 0 = no damage, 100 = complete death
Procedure, shortened: as §1

[9] = tested on: johnsongrass (Sorghum halepense, SORHA); experiment: as above; details: pre-emerge, rated 14 days after application, 0 = no damage, 100 = complete death
Procedure, shortened: as §1

[10] = tested on: redroot pigweed (Amaranthus retroflexus, AMARE); experiment: as above; details: pre-emerge, rated 14 days after application, 0 = no damage, 100 = complete death
Procedure, shortened: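 Compounds in acetone were track-sprayed at 15-1000 g ai/ha (187 l/ha) on sandy loam pots: pre-emerge one day after seeding, post-emerge at 2-3 leaf stage with 0.25% v/v non-ionic surfactant. Phytotoxicity was rated 14 days later on a 0 (no damage) to 100 (complete death) scale.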

[11] = tested on: upland rice (Oryza sp., var. Tebonnet, RICE); experiment: Post-emerge test, crop safety; details: phytotoxicity rating 0-100 (0 no damage, 100 complete death), 14 days after application
Procedure, shortened: (§2)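 Rating: 0–100 visual injury, 14 DAA. Application: acetone, 187 l/ha, 15–1000 g ai/ha, flat-fan track sprayer with nozzle 40–45 cm above soil or canopy. Post-emerge runs used 0.25% v/v surfactant on 2–3 leaf plants.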

[12] = tested on: field corn (Zea mays L., var. Dekalb 535, CORN); experiment: Post-emerge test, crop safety; details: phytotoxicity rating 0-100 (0 no damage, 100 complete death), 14 days after application
Procedure, shortened: as §2

[13] = tested on: velvetleaf (Abutilon theophrasti, ABUTH); experiment: Post-emerge test, greenhouse herbicide activity screening; details: phytotoxicity rating 0-100 (0 no damage, 100 complete death), 14 days after application
Procedure, shortened: (§3)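 Applied at 15–1000 g ai/ha from acetone in 187 l/ha spray volume. Post-emergence applications included 0.25% v/v non-ionic surfactant and reached plants sown 8–21 days before. Pre-emergence applications were incorporated by surface watering. Efficacy or crop damage was rated on a 0–100 scale after 14 days.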

[14] = tested on: redroot pigweed (Amaranthus retroflexus, AMARE); experiment: as above; details: phytotoxicity rating 0-100 (0 no damage, 100 complete death), 14 days after application
Procedure, shortened: as §3

[15] = tested on: barnyardgrass (Echinochloa crus-galli, ECHCG); experiment: as above; details: phytotoxicity rating 0-100 (0 no damage, 100 complete death), 14 days after application
Procedure, shortened: as §3

[16] = tested on: large crabgrass (Digitaria sanguinalis, DIGSA); experiment: as above; details: phytotoxicity rating 0-100 (0 no damage, 100 complete death), 14 days after application
Procedure, shortened: as §3

[17] = tested on: ivyleaf morningglory (Ipomoea hederacea, IPOHE); experiment: as above; details: phytotoxicity rating 0-100 (0 no damage, 100 complete death), 14 days after application
Procedure, shortened: as §3

[18] = tested on: lambsquarters (Chenopodium album, CHEAL); experiment: as above; details: phytotoxicity rating 0-100 (0 no damage, 100 complete death), 14 days after application
Procedure, shortened: as §3

[19] = tested on: common ragweed (Ambrosia artemisizfolia L., AMBEL); experiment: as above; details: phytotoxicity rating 0-100 (0 no damage, 100 complete death), 14 days after application
Procedure, shortened: as §3

[20] = tested on: sicklepod (Cassia obtusifolia, CASOB); experiment: as above; details: phytotoxicity rating 0-100 (0 no damage, 100 complete death), 14 days after application
Procedure, shortened: as §3

[21] = tested on: johnsongrass (Sorghum halepense, SORHA); experiment: as above; details: phytotoxicity rating 0-100 (0 no damage, 100 complete death), 14 days after application
Procedure, shortened: as §3

[22] = tested on: upland rice (Oryza sp., var. Tebonnet, RICE); experiment: Pre-emerge test, crop safety; details: pre-emerge, rated 14 days after application, 0 = no damage, 100 = complete death
Procedure, shortened: (§4)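 Compounds in acetone were track-sprayed at 187 l/ha, 15–1000 g ai/ha, onto sandy loam pots. Pre-emerge seeds were sown one day before spraying, with surface watering afterwards. Post-emerge plants were at the 2–3 leaf stage and sprayed with 0.25% v/v non-ionic surfactant. Injury was rated 0–100 at 14 days.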

[23] = tested on: field corn (Zea mays L., var. Dekalb 535, CORN); experiment: Pre-emerge test, crop safety; details: pre-emerge, rated 14 days after application, 0 = no damage, 100 = complete death
Procedure, shortened: as §4

CCc1ccc(C(=O)Nc2c(OC)c(Cl)cc(F)c2-n2c(=O)cc(C(F)(F)F)n(C)c2=O)cc1 [2-27]
95: Pre-emerge Herbicidal Activity DIGSA (phytotoxicity rating, scale 0-100) ([4]; 63 g ai/ha) | Post-emerge Herbicidal Activity RICE (crop damage) ([11]; 250 g ai/ha) | Post-emerge Herbicidal Activity CORN (crop damage) ([12]; 250 g ai/ha)
50: Pre-emerge Herbicidal Activity ECHCG (phytotoxicity rating, scale 0-100) ([3]; 63 g ai/ha) | Post-emerge Herbicidal Activity CORN (crop damage) ([12]; 63 g ai/ha) | Post-emerge Herbicidal Activity CASOB ([20]; 63 g ai/ha)
85: Post-emerge Herbicidal Activity SORHA ([21]; 250 g ai/ha)
60: Pre-emerge Herbicidal Activity CASOB (phytotoxicity rating, scale 0-100) ([8]; 63 g ai/ha) | Post-emerge Herbicidal Activity RICE (crop damage) ([11]; 63 g ai/ha) | Post-emerge Herbicidal Activity AMBEL ([19]; 63 g ai/ha)
30: Pre-emerge Herbicidal Activity SORHA (phytotoxicity rating, scale 0-100) ([9]; 63 g ai/ha)
80: Pre-emerge Herbicidal Activity IPOHE (phytotoxicity rating, scale 0-100) ([5]; 63 g ai/ha) | Pre-emerge Herbicidal Activity SORHA (phytotoxicity rating, scale 0-100) ([9]; 250 g ai/ha) | Post-emerge Herbicidal Activity ECHCG ([15]; 250 g ai/ha)
0: Post-emerge Herbicidal Activity ECHCG ([15]; 63 g ai/ha)
20: Post-emerge Herbicidal Activity SORHA ([21]; 63 g ai/ha) | Pre-emerge crop damage CORN (phytotoxicity rating, scale 0-100) ([23]; 63 g ai/ha)
100: Pre-emerge Herbicidal Activity ABUTH (phytotoxicity rating, scale 0-100) ([1]; 63 g ai/ha) | Pre-emerge Herbicidal Activity ABUTH (phytotoxicity rating, scale 0-100) ([1]; 250 g ai/ha) | Pre-emerge Herbicidal Activity SETVI (phytotoxicity rating, scale 0-100) ([2]; 63 g ai/ha) | Pre-emerge Herbicidal Activity SETVI (phytotoxicity rating, scale 0-100) ([2]; 250 g ai/ha) | Pre-emerge Herbicidal Activity ECHCG (phytotoxicity rating, scale 0-100) ([3]; 250 g ai/ha) | Pre-emerge Herbicidal Activity DIGSA (phytotoxicity rating, scale 0-100) ([4]; 250 g ai/ha) | Pre-emerge Herbicidal Activity IPOHE (phytotoxicity rating, scale 0-100) ([5]; 250 g ai/ha) | Pre-emerge Herbicidal Activity CHEAL (phytotoxicity rating, scale 0-100) ([6]; 63 g ai/ha) | Pre-emerge Herbicidal Activity CHEAL (phytotoxicity rating, scale 0-100) ([6]; 250 g ai/ha) | Pre-emerge Herbicidal Activity AMBEL (phytotoxicity rating, scale 0-100) ([7]; 63 g ai/ha) | Pre-emerge Herbicidal Activity AMBEL (phytotoxicity rating, scale 0-100) ([7]; 250 g ai/ha) | Pre-emerge Herbicidal Activity CASOB (phytotoxicity rating, scale 0-100) ([8]; 250 g ai/ha) | Pre-emerge Herbicidal Activity AMARE (phytotoxicity rating, scale 0-100) ([10]; 63 g ai/ha) | Pre-emerge Herbicidal Activity AMARE (phytotoxicity rating, scale 0-100) ([10]; 250 g ai/ha) | Post-emerge Herbicidal Activity ABUTH ([13]; 63 g ai/ha) | Post-emerge Herbicidal Activity ABUTH ([13]; 250 g ai/ha) | Post-emerge Herbicidal Activity AMARE ([14]; 63 g ai/ha) | Post-emerge Herbicidal Activity AMARE ([14]; 250 g ai/ha) | Post-emerge Herbicidal Activity IPOHE ([17]; 250 g ai/ha) | Post-emerge Herbicidal Activity CHEAL ([18]; 250 g ai/ha)
10: Post-emerge Herbicidal Activity DIGSA ([16]; 63 g ai/ha)
90: Post-emerge Herbicidal Activity IPOHE ([17]; 63 g ai/ha) | Post-emerge Herbicidal Activity CHEAL ([18]; 63 g ai/ha) | Post-emerge Herbicidal Activity AMBEL ([19]; 250 g ai/ha) | Post-emerge Herbicidal Activity CASOB ([20]; 250 g ai/ha) | Pre-emerge crop damage RICE (phytotoxicity rating, scale 0-100) ([22]; 250 g ai/ha) | Pre-emerge crop damage CORN (phytotoxicity rating, scale 0-100) ([23]; 250 g ai/ha)
70: Post-emerge Herbicidal Activity DIGSA ([16]; 250 g ai/ha) | Pre-emerge crop damage RICE (phytotoxicity rating, scale 0-100) ([22]; 63 g ai/ha)
